Source: US7572606B1 (Nereus Pharmaceuticals, Inc., priority 2005, dated 2009)
Read-outs that look alike come from different tables or passages of the source.

Key:
[1] = system: chymotrypsin-like proteasome activity in packed whole blood lysate; experiment: Whole blood proteasome activity after dosing (PWBL assay); assay type: in vivo, male Swiss-Webster mice; conditions: mice
Method: In brief, frozen whole blood samples were thawed on ice for one hour, and resuspended in 700 μL of ice cold 5 mM EDTA, pH 8.0 in order to lyse the cells by hypotonic shock. This represents approximately 2-3 times the volume of the packed whole blood cells. Lysis was allowed to proceed for one hour, and the cellular debris was removed by centrifugation at 14,000×g for 10 minutes. The supernatant (Packed Whole Blood Lysate, PWBL) was transferred to a fresh tube, and the pellet discarded. Protein concentration of the PWBL was determined by BCA assay (Pierce) using BSA as a standard.
Proteasome activity was determined by measuring the hydrolysis of a fluorogenic substrate specific for the chymotrypsin-like activity of proteasomes (suc-LLVY-AMC, Bachem Cat. I-1395). […] The rate of hydrolysis in this system is linear for at least one hour. The hydrolysis rate of each sample is then normalized to relative fluorescent units per milligram of protein (RFU/mg).
The vehicle control consisted of 2% DMSO in 10% solutol. […] Packed whole blood cells were collected by centrifugation, washed with PBS, and re-centrifuged. All samples were stored at −80° C. prior to the evaluation of the proteasome activity.
Male Swiss Webster mice (12/group weighing 20-25 g) were injected with LPS (2 mg/kg) by the i.p. route. […]

CAK1-1 = experiment: NCI 60 cell line screen, sulforhodamine B, 48 h; assay type: cell-based, human; conditions: CAK1-1, Renal Cancer
Method: (§1) A detailed description of the screening procedure can be found at hypertext transfer protocol (http://) “dtp.nci.nih.gov/branches/btb/ivclsp.html.”
(§2) In brief, each of the 60 human tumor cell lines were grown in RPMI 1640 medium, supplemented with 5% fetal bovine serum and 2 mM L-glutamine. Cells were plated at their appropriate density in 96-well microtiter plates and incubated at 37° C., 5% CO2, 95% air and 100% relative humidity. […] Cells were incubated for an additional 48 hours and a sulforhodamine B protein assay was used to estimate cell viability or growth.

UO-11 = experiment: NCI 60 cell line screen, sulforhodamine B, 48 h; assay type: cell-based, human
Method: as §1, §2

A498 = experiment: NCI 60 cell line screen, sulforhodamine B, 48 h; assay type: cell-based, human
Method: as §1, §2

MCF7 = experiment: NCI 60 cell line screen, sulforhodamine B, 48 h; assay type: cell-based, human; conditions: MCF7, Breast Cancer
Method: as §1, §2

K-562 = experiment: NCI 60 cell line screen, sulforhodamine B, 48 h; assay type: cell-based, human; conditions: K-562, Leukemia
Method: as §1, §2

EKVX = experiment: NCI 60 cell line screen, sulforhodamine B, 48 h; assay type: cell-based, human; conditions: Non-Small Cell Lung Cancer
Method: as §1, §2

SW-620 = experiment: NCI 60 cell line screen, sulforhodamine B, 48 h; assay type: cell-based, human; conditions: SW-620, Colon Cancer
Method: as §1, §2

UACC-257 = experiment: NCI 60 cell line screen, sulforhodamine B, 48 h; assay type: cell-based, human
Method: as §1, §2

MDA-MB-231/ATCC = experiment: NCI 60 cell line screen, sulforhodamine B, 48 h; assay type: cell-based, human; conditions: Breast Cancer
Method: as §1, §2

OVCAR-5 = experiment: NCI 60 cell line screen, sulforhodamine B, 48 h; assay type: cell-based, human; conditions: OVCAR-5, Ovarian Cancer
Method: as §1, §2

COLO 205 = experiment: NCI 60 cell line screen, sulforhodamine B, 48 h; assay type: cell-based, human; conditions: COLO 205, Colon Cancer
Method: as §1, §2

T-47D = experiment: NCI 60 cell line screen, sulforhodamine B, 48 h; assay type: cell-based, human
Method: as §1, §2

SF-539 = experiment: NCI 60 cell line screen, sulforhodamine B, 48 h; assay type: cell-based, human; conditions: SF-539, CNS Cancer
Method: as §1, §2

MDA-MB-435 = experiment: NCI 60 cell line screen, sulforhodamine B, 48 h; assay type: cell-based, human; conditions: for CC50: Homo sapiens
Method: as §1, §2

HCT-15 = experiment: NCI 60 cell line screen, sulforhodamine B, 48 h; assay type: cell-based, human
Method: as §1, §2

SNB-19 = experiment: NCI 60 cell line screen, sulforhodamine B, 48 h; assay type: cell-based, human
Method: as §1, §2

T86-0 = experiment: NCI 60 cell line screen, sulforhodamine B, 48 h; assay type: cell-based, human
Method: as §1, §2

NCI-H460 = experiment: NCI 60 cell line screen, sulforhodamine B, 48 h; assay type: cell-based, human; conditions: NCI-H460, Non-Small Cell Lung Cancer
Method: as §1, §2

OVCAR-4 = experiment: NCI 60 cell line screen, sulforhodamine B, 48 h; assay type: cell-based, human; conditions: OVCAR-4, Ovarian Cancer
Method: as §1, §2

OVCAR-8 = experiment: NCI 60 cell line screen, sulforhodamine B, 48 h; assay type: cell-based, human; conditions: OVCAR-8, Ovarian Cancer
Method: as §1, §2

KM12 = experiment: NCI 60 cell line screen, sulforhodamine B, 48 h; assay type: cell-based, human; conditions: KM12, Colon Cancer
Method: as §1, §2

Thrombin = Thrombin (Homo sapiens, UniProt P00734); experiment: Specificity: inhibition of other proteolytic enzymes; assay type: biochemical
[2] = Homo sapiens, 60 cell, read-out: Log10 LC50 (converted)

C[C@@]12OC(=O)[C@]1([C@@H](O)[C@@H]1C=CCCC1)NC(=O)[C@@H]2CCCl [Formula II-16, Salinosporamide A]
proteasomal activity in PWBL ([1]; i.v. or oral, blood 90 min after administration): profound decrease in proteasomal activity in PWBL | activity upon oral administration (PWBL proteasome) ([1]; oral): active upon oral administration | Log10 G150 (CAK1-1): <-8.00 Molar | Log10 TGI (CAK1-1): >-4.00 Molar | CC50 (UO-11; [2]): 25.7 µM | Log10 G150 (UO-11; UO-11, Renal Cancer): <-8.00 Molar | Log10 TGI (UO-11; UO-11, Renal Cancer): -5.83 Molar | Log10 G150 (A498; A498, Renal Cancer): <-8.00 Molar | Log10 TGI (A498; A498, Renal Cancer): <-8.00 Molar | CC50 (A498; Homo sapiens, A498, read-out: Log10 LC50 (converted)): 0.0115 µM | Log10 G150 (MCF7): <-8.00 Molar | Log10 TGI (MCF7): >-4.00 Molar | Log10 G150 (K-562): <-8.00 Molar | Log10 TGI (K-562): -5.59 Molar | Log10 G150 (EKVX): <-8.00 Molar | Log10 TGI (EKVX): -5.67 Molar | Log10 G150 (SW-620): <-8.00 Molar | Log10 TGI (SW-620): >-4.00 Molar | CC50 (UACC-257; Homo sapiens, UACC-257, read-out: Log10 LC50 (converted)): 0.427 µM | Log10 G150 (UACC-257; UACC-257, Melanoma): <-8.00 Molar | Log10 TGI (UACC-257; UACC-257, Melanoma): <-8.00 Molar | Log10 G150 (MDA-MB-231/ATCC): <-8.00 Molar | Log10 TGI (MDA-MB-231/ATCC): <-8.00 Molar | Log10 G150 (OVCAR-5): <-8.00 Molar | Log10 TGI (OVCAR-5): -7.28 Molar | Log10 G150 (COLO 205): <-8.00 Molar | Log10 TGI (COLO 205): -6.19 Molar | CC50 (T-47D; Homo sapiens, T47D, read-out: Log10 LC50 (converted)): > 100 µM | Log10 G150 (T-47D; T-47D, Breast Cancer): <-8.00 Molar | Log10 TGI (T-47D; T-47D, Breast Cancer): >-4.00 Molar | Log10 G150 (SF-539): <-8.00 Molar | Log10 TGI (SF-539): <-8.00 Molar | CC50 (MDA-MB-435; MDA-MB-435, read-out: LC50): < 0.01 µM | CC50 (MDA-MB-435; MDA-MB-435, read-out: Log10 LC50 (converted)): < 0.01 µM | Log10 G150 (MDA-MB-435; MDA-MB-435, Breast Cancer): <-8.00 Molar | Log10 TGI (MDA-MB-435; MDA-MB-435, Breast Cancer): <-8.00 Molar | Log10 G150 (HCT-15; HCT-15, Colon Cancer): <-8.00 Molar | Log10 TGI (HCT-15; HCT-15, Colon Cancer): -6.06 Molar | CC50 (HCT-15; Homo sapiens, HCT-15, read-out: Log10 LC50 (converted)): 56.2 µM | CC50 (SNB-19; Homo sapiens, SNB-19, read-out: Log10 LC50 (converted)): > 100 µM | Log10 G150 (SNB-19; SNB-19, CNS Cancer): <-8.00 Molar | Log10 TGI (SNB-19; SNB-19, CNS Cancer): >-4.00 Molar | CC50 (T86-0; [2]): > 100 µM | Log10 G150 (T86-0; T86-0, Renal Cancer): <-8.00 Molar | Log10 TGI (T86-0; T86-0, Renal Cancer): -5.37 Molar | Log10 G150 (NCI-H460): <-8.00 Molar | Log10 TGI (NCI-H460): -6.97 Molar | Log10 G150 (OVCAR-4): <-8.00 Molar | Log10 TGI (OVCAR-4): <-8.00 Molar | Log10 G150 (OVCAR-8): <-8.00 Molar | Log10 TGI (OVCAR-8): -7.70 Molar | Log10 G150 (KM12): <-8.00 Molar | Log10 TGI (KM12): -6.00 Molar | EC50 (Thrombin): > 200 µM
